Data from patent US4176009A, “Method of measuring collagenase activity” (Ajinomoto Co., Inc., priority 1976, dated 1979).
Non-standard residues stand in square brackets, D forms with d. Residues, ends and D or L forms follow the SMILES beside them. *: point of attachment. X1 = O=S(=O)(c1ccc(N=Nc2ccc(O)c3ccccc23)cc1)*; X2 = O=C(c1ccc(N=Nc2ccccc2)cc1)*

Assays:
purified collagenase [1] = assay: Hydrolysis of NABS-peptide by purified collagenase (Example 16); format: biochemical, tadpole; conditions: 5×10^-4 M in 20% ethanol-Tris-HCl pH 7.8, collagenase 17.4 U/ml, 60 minutes at 37° C.
Description: (§1) Purified collagenase used in Examples was prepared from cultured media of tadpole skin explants as described in Biochem. Biophs. Acta, 263 564(1972), and non-specific peptidases were prepared by subjecting 5 ml of fresh adult human serum to chromatography on a calibrated Sephadex G-200 superfine gel column equilibrated with 0.05 M Tris-HCl buffer, pH 7.5, containing 0.15 M NaCl and 5 mM CaCl2, and gathering the effluent fractions corresponding to molecular weights of 100,000-180,000.
NABS-Pro-Gln-Gly-Ile-Ala-Gly-Gln-D-Arg-OH was dissolved in 20% ethanol-0.05 M Tris-HCl buffer, pH 7.8, containing 0.15 M NaCl and 5 mM CaCl2 to make a concentration of 5×10^-4 M. 0.5 ml of the solution was mixed with 0.1 ml of the purified collagenase (17.4 U/ml) and incubated for 60 minutes at 37° C. After stopping the enzyme reaction by adding 0.1 ml of 5 N-hydrochloric acid, the NABS-peptide fragments released were extracted with 1 ml ethyl acetate, followed by centrifugation at 3,000-5,000 rpm and room temperature for 10 minutes. The degree of hydrolysis was determined by measuring the absorbance of the organic layer at 389 nm.

purified collagenase [2] = assay: Hydrolysis of PAB-peptide by purified collagenase (Example 17); format: biochemical, tadpole; conditions: 5×10^-4 M in Tris-HCl pH 7.8, collagenase 17.4 U/ml, 60 minutes at 37° C.
Description: as §1
PAS-Pro-Gln-Gly-Ile-Ala-Gly-Gln-D-Arg-OH was dissolved in 0.05 M Tris-HCl buffer, pH 7.8, containing 0.15 M NaCl and 5 mM CaCl2 to make a concentration of 5×10^-4 M. 0.1 ml of the solution was mixed with 0.1 ml of the purified collagenase (17.4 U/ml) and incubated for 60 minutes at 37° C. After stopping the enzyme reaction by adding 0.5 ml of 1 N hydrochloric acid, the PAB-peptide fragments released were extracted with 1 ml ethyl acetate after saturated with sodium chloride, and worked up as in Example 16. The degree of hydrolysis was determined by measuring the absorbance of the organic layer at 325 nm.

## CC[C@H](C)[C@H](NC(=O)CNC(=O)[C@H](CCC(N)=O)NC(=O)[C@@H]1CCCN1S(=O)(=O)c1ccc(N=Nc2ccc(O)c3ccccc23)cc1)C(=O)N[C@@H](C)C(=O)NCC(=O)N[C@@H](CCC(N)=O)C(=O)N[C@H](CCCNC(=N)N)C(=O)O [Example 2, NABS-Pro-Gln-Gly-Ile-Ala-Gly-Gln-D-Arg-OH] (X1-PQGIAGQ[dR]-OH)
Purified collagenase [1]
  degree of hydrolysis, OD389/hr/ml: 0.100 OD389/hr/ml

## CC[C@H](C)[C@H](NC(=O)CNC(=O)[C@H](CCC(N)=O)NC(=O)[C@@H]1CCCN1C(=O)c1ccc(N=Nc2ccccc2)cc1)C(=O)N[C@@H](C)C(=O)NCC(=O)N[C@@H](CCC(N)=O)C(=O)N[C@H](CCCNC(=N)N)C(=O)O [Example 3, PAB-Pro-Gln-Gly-Ile-Ala-Gly-Gln-D-Arg-OH] (X2-PQGIAGQ[dR]-OH)
Purified collagenase [2]
  degree of hydrolysis, OD325/hr/ml: 1.117 OD325/hr/ml
